{
  "source": "patent US20050004044A1",
  "about": "“Use of orsaponin [3beta, 16beta, 17 alpha-trihydroxycholost-5-en-22-one 16-0-(2-0-4-methoxybenzoyl-beta-D-xylopyranosyl)-(1->3)-(2-0-acetyl-alpha-L-arabinopyranoside)] or OSW-1 and its derivatives for cancer therapeutics” (priority 2003, published 2005)",
  "key": {"[1]": {"test_system": "primary normal lymphocytes", "assay": "MTT cell viability, normal lymphocytes from healthy donors", "format": "cell-based", "settings": "Homo sapiens, Lymphocyte", "description": "FIG. 8. Effect of Orsaponin (OSW-1) on cell survival in primary normal lymphocytes isolated from healthy donors. Freshly isolated normal lymphocytes were incubated with the indicated concentrations of OSW-1 for 72 hours in vitro. Cell viability was measured by MTT assay. The IC50 value estimated to be 4 nM and 3 nM in case #1 and #2, respectively.\n(§1) 1. MTT Assays. For these assays either cancer cell lines were used. Alternatively, mononuclear cells from peripheral blood samples of CLL patients or normal donors were separated by Ficoll Hipaque fractionation and resuspended in DMEM complete medium. Malignant cells from various human cell lines (usually at 5×10^4 cells/ml) or mononuclear cells from peripheral blood of leukemia patients and healthy donors (1×10^6 cells/ml) were incubated in either αMEM or RPMI 1640 with or without various concentrations of OSW-1 in the range of 0-10 nM. Each experimental condition was done in triplicate. After the indicated number of days (usually 3 days or 72 hours) of exposure to OSW-1, cell survival was assessed by the addition of the MTT dye to the wells. The MTT dye changes its color depending on the presence of live cells in the well. Survival of cells under orsaponin treatment was evaluated as a percentage of control cell growth. Alternatively, one can also use the dye trypan-blue which penetrates dead cells thereby allowing one to count live cells under the microscope and estimating percentage survival.\nAs controls the effect of OSW-1 on cell survival in primary normal lymphocytes isolated from healthy donors was also analyzed. Freshly isolated normal lymphocytes were incubated with the 01-0 nM OSW-1 for 72 hours in vitro and cell viability was measured by MTT assay. As depicted in FIG. 8, the IC50 value estimated to be 4 nM and 3 nM in case #1 and #2, respectively."}, "[2]": {"test_system": "HCT116 p53−/− colon cancer cells", "assay": "Colony formation assay, HCT116 p53−/−", "format": "cell-based, human", "description": "FIG. 6. Effect of OSW-1 on cell survival in human colon carcinoma cells. Human colon cancer cells with wild-type p53 (HCT116 p53+/+) and p53-null (HCT116 p53−/−) were treated with the indicated concentrations of OSW-1, and cell survival was measured by colony formation assay.\nOSW-1 Inhibits Growth of Human Colon Cancer Cells. […] The HCT116 colon cancer cells with wild-type p53 (p53+/+) and p53-null (p53−/−) were treated with the various concentrations of orsaponin (OSW-1), and cell survival was measured by colony formation assay."}, "[3]": {"test_system": "cancer cells of pancreatic, ovarian, colon, and CLL origins", "assay": "Cytotoxicity in cancer cells, summary statement", "format": "cell-based", "settings": "Homo sapiens, read-out: IC50, kills cancer cells", "description": "The results were also observed in vivo in mouse models of ovarian cancer where animal survival was improved, and tumor volume reductions were observed"}, "AsPC-1/IκBα-ND cells": {"test_system": "AsPC-1/IκBα-ND cells", "assay": "MTT cell growth inhibition, AsPC-1 with NFκB inactivated", "format": "cell-based", "settings": "Homo sapiens, ASPC1, 72 h", "description": "FIG. 4. The anticancer activity of Orsaponin (OSW-1) is not affected by NFκB expression in pancreatic cancer cells. Human pancreatic cancer cells AsPC-1 with constitutive activation of NFκB or inactivation of NFκB by dominant negative IκBα (AsPC-1/IκBα-ND) were treated with the indicated concentrations of OSW-1 for 72 h. Cell growth inhibition was measured by MTT assay.\nas §1, with “The MTT dye changes its color depending on the presence of live cells in the well.” left out, “Alternatively, one can also use the dye trypan-blue which penetrates dead cells thereby allowing one to count live cells under the microscope and estimating percentage survival.” left out\nOSW-1 Inhibits Growth of Pancreatic Cancer Cells Irrespective of NFκB Expression. […] Cell growth inhibition was measured by MTT assay. […]"}, "[4]": {"assay": "5-day intravenous toxicity study in mice", "format": "in vivo, ICR mice", "settings": "for Early Deaths: 15 dosed; for NOAEL at 5 days: ICR", "description": "To assess the toxicity of orsaponin of the present invention, a 5-day intravenous study with Orsaponin in mice was conducted. […] Five mice from each group were scheduled to be sacrificed 3, 14, and 42 days after the last dose was administered.\nTissues (liver with gall bladder, kidneys, heart with aorta, lungs, spleen, skeletal muscle, brain, pituitary gland, eyes, pancreas, stomach, duodenum, jejunum, ileum, cecum, colon, mesenteric lymph node, salivary gland, mandibular lymph node, thymus, adrenal glands, larynx/pharynx/tongue, thyroid gland, parathyroid, trachea, esophagus, skin, mammary gland (females only), prostate, seminal vesicles, urinary bladder, testes, epididymides, ovary, uterus, cervix, femur/knee joint, sternum, bone marrow, and gross lesions) were processed for microscopic evaluation.\nIndividual animal organ weight was also measured. Calculation of percent of control using the relative weight of the individual organs per 100 grams of the terminal body weight (TBW) is included below in Tables 8 and 9. A change of greater than 20% difference was considered toxicologically important, and/or a clear dose response relationship."}, "Raji cells (lymphoma)": {"test_system": "Raji cells (lymphoma)", "assay": "MTT cell growth inhibition, Raji", "format": "cell-based, human", "settings": "72 h", "description": "FIG. 2. Effect of Orsaponin (OSW-1) on cell growth in two human cancer cell lines including a leukemia and a lymphoma cell line. HL-60 (leukemia) and Raji cells (lymphoma) in exponentially growing phase were treated with the indicated concentrations of OSW-1 for 72 hours. Cell growth inhibition was measured by MTT assay.\nCells and Cell Lines. Various cancer cell lines were used including the human leukemia cell lines HL-60 and ML-1 cells; human lymphoma cell line Raji; human pancreatic cancer cells AsPC-1; and human ovarian cancer cells SKOV3; human colon cancer cells HCT116; as well as isolated CLL cells from patients; and lymphocytes from normal donors. Cells were grown and maintained as per protocols known in the art using appropriate cell culture media and supplements.\n1. MTT Assays. For these assays either cancer cell lines were used. […] After the indicated number of days (usually 3 days or 72 hours) of exposure to OSW-1, cell survival was assessed by the addition of the MTT dye to the wells. […] Survival of cells under orsaponin treatment was evaluated as a percentage of control cell growth. […]\nAnticancer activities of Orsaponin and 17-deoxyorsaponin were examined in human leukemia cells (ML-1) and human lymphoma cells (Raji). Cells were incubated with various concentrations of Orsaponin and 17-deoxyorsaponin for 72 h, and cell growth inhibition was measured by MTT assay."}, "[5]": {"settings": "male mice, early deaths day 4, individual animals, listed as Orsaponin"}},
  "note": "Several values for one entry are separate records, joined by “and”; a condition that tells them apart may be missing. Equal values may be shown once. Read-outs that look alike come from different tables or passages of the source.",
  "data": [
    {"molecule": "COc1ccc(C(=O)OC2C(OC3C(O)COC(O[C@H]4C[C@H]5[C@@H]6CC=C7C[C@@H](O)CC[C@]7(C)[C@H]6CC[C@]5(C)[C@@]4(O)[C@H](C)C(=O)CCC(C)C)C3OC(C)=O)OCC(O)C2O)cc1", "note": "(stereo partly drawn) [OSW-1, 3β, 16β, 17 α-trihydroxycholost-5-en-22-one 16-O-(2-O-4-methoxybenzoyl-β-D-xylopyranosyl)-(1->3)-(2-O-acetyl-α-L-arabinopyranoside)]", "values": [
      {"measurement": "IC50", "setting": "[1]; 72 h, normal lymphocytes, 72 hours, case #1, read-out: IC50, cell viability", "result": "~4", "unit": "nM"},
      {"measurement": "IC50", "setting": "[1]; 72 h, normal lymphocytes, 72 hours, case #2, read-out: IC50, cell viability", "result": "~3", "unit": "nM"},
      {"measurement": "IC50", "setting": "[1]; Normal Lymphocytes, mean, read-out: IC50", "result": "3.5 ± 0.7", "unit": "nM"},
      {"measurement": "cell survival, colony formation", "setting": "[2]", "result": "effectively kill the p53−/− cells"},
      {"measurement": "IC50", "setting": "[3]", "result": "< 1", "unit": "nM"},
      {"measurement": "IC50", "setting": "AsPC-1/IκBα-ND cells", "result": "~0.3", "unit": "nM"},
      {"measurement": "Early Deaths", "setting": "[4]; Females, 10 μg/kg/day", "result": 0},
      {"measurement": "Early Deaths", "setting": "[4]; Females, 20 μg/kg/day", "result": 0},
      {"measurement": "Early Deaths", "setting": "[4]; Females, 30 μg/kg/day", "result": 0},
      {"measurement": "Early Deaths", "setting": "[4]; Females, 40 μg/kg/day", "result": 0},
      {"measurement": "Spleen Relative Weight", "setting": "[4]; Females, 14-Day, 20 μg/kg/day", "result": "109% of Control"},
      {"measurement": "Liver Relative Weight", "setting": "[4]; Females, 14-Day, 40 μg/kg/day", "result": "105% of Control"},
      {"measurement": "Kidney Relative Weight", "setting": "[4]; Females, 42-Day, 20 μg/kg/day", "result": "116% of Control"},
      {"measurement": "Kidney Relative Weight", "setting": "[4]; Females, 42-Day, 40 μg/kg/day", "result": "105% of Control"},
      {"measurement": "Early Deaths", "setting": "[4]; Males, 10 μg/kg/day", "result": 0},
      {"measurement": "Early Deaths", "setting": "[4]; Males, 20 μg/kg/day", "result": 7},
      {"measurement": "Early Deaths", "setting": "[4]; Males, 40 μg/kg/day", "result": 15},
      {"measurement": "Kidney Relative Weight", "setting": "[4]; Males, 3-Day, 10 μg/kg/day", "result": "103% of Control"},
      {"measurement": "Kidney Relative Weight", "setting": "[4]; Males, 3-Day, 20 μg/kg/day", "result": "116% of Control"},
      {"measurement": "TBW", "setting": "[4]; Males, 14-Day, 10 μg/kg/day", "result": "107% of Control"},
      {"measurement": "mortality or morbidity", "setting": "[4]; female mice, 10, 20 or 40 μg/kg/day i.v.", "result": "no mortality or morbidity was observed"},
      {"measurement": "NOAEL at 5 days", "setting": "[4]; female, mouse, in vivo, females, read-out: no-observed-adverse-effect level (NOAEL)", "result": 0.04, "unit": "mg/kg/day"},
      {"measurement": "no-observed-effect level (NOEL)", "setting": "[4]; females", "result": 40, "unit": "µg/kg/day"},
      {"measurement": "NOEL", "setting": "[4]; male mice", "result": "No NOEL"},
      {"measurement": "mortality and morbidity", "setting": "[4]; male mice, 20 and 40 μg/kg/day, after the fourth injection", "result": "mortality and morbidity was observed"},
      {"measurement": "Hemolysis Sl, Md, Mk", "setting": "[4]; male mice, early deaths day 4, individual animals (IDs 30xx, 40xx), 30 and 40 μg/kg/day groups, listed as Orsaponin", "result": "Md (6×) and Mk and Sl"},
      {"measurement": "ALK PHOS", "setting": "[4]; [5]", "result": "1896 IU/L and 1746 IU/L and 2290 IU/L and 3302 IU/L and >4500 IU/L and >1500 IU/L (2×) and 2001 IU/L and >2842 IU/L and 3339 IU/L and 4992 IU/L and 4326 IU/L"},
      {"measurement": "ALT", "setting": "[4]; [5]", "result": "1058 IU/L and 486 IU/L and >8800 IU/L (2×) and >4400 IU/L (2×) and 2060 IU/L and >6600 IU/L (2×) and 5642 IU/L and 4950 IU/L and 5596 IU/L"},
      {"measurement": "AST", "setting": "[4]; [5]", "result": "1794 IU/L and 1167 IU/L and >8800 IU/L (3×) and 3306 IU/L and >6600 IU/L (2×) and 4341 IU/L and >4400 IU/L and 5106 IU/L and 5864 IU/L"},
      {"measurement": "Alb", "setting": "[4]; [5]", "result": "4.2 gm/dl and 3 gm/dl and 3.4 gm/dl and 2.4 gm/dl (2×) and 3.8 gm/dl (2×) and 3.3 gm/dl and 3.9 gm/dl and 2.8 gm/dl and 2.7 gm/dl"},
      {"measurement": "CHLORIDE", "setting": "[4]; [5]", "result": "103 mmol/L and 110 mmol/L (3×) and 116 mmol/L and 105 mmol/L and 109 mmol/L and 107 mmol/L"},
      {"measurement": "Glob", "setting": "[4]; [5]", "result": "2.3 gm/dl and 1.8 gm/dl (2×) and 6.6 gm/dl and 1.4 gm/dl (2×) and 1.6 gm/dl and 1.5 gm/dl and 2.1 gm/dl and 1.2 gm/dl and 1 gm/dl"},
      {"measurement": "T. PROTEIN", "setting": "[4]; [5]", "result": "6.5 gm/dl and 4.8 gm/dl (2×) and 10 gm/dl and 3.8 gm/dl and 5.4 gm/dl and 5.6 gm/dl and 6 gm/dl (2×) and 4 gm/dl and 4.1 gm/dl and 3.4 gm/dl"},
      {"measurement": "NOAEL at 5 days", "setting": "[4]; male, mouse, in vivo, males, 5 daily doses, based on pathology, read-out: NOAEL", "result": 0.01, "unit": "mg/kg/day"},
      {"measurement": "compound-related findings", "setting": "[4]; mouse, in vivo", "result": "No Orsaponin-related findings were observed"},
      {"measurement": "interpretation of AST, ALT and total bilirubin", "setting": "[4]; mouse, in vivo", "result": "severe liver disease"},
      {"measurement": "reversibility of hepatocellular lesion", "setting": "[4]; mouse, in vivo", "result": "completely reversible"},
      {"measurement": "IC50", "setting": "Raji cells (lymphoma)", "result": "< 0.5", "unit": "nM"}
    ]}
  ]
}
